Here are results for two compounds from patent US7320990B2, “Crystalline form of a biphenyl compound” (Theravance, Inc., priority 2004, dated 2008).

In general, EC50 refers to the concentration needed to bring the measured effect to its halfway point.

Series [1] is described as follows: Thermal analysis (DSC and TGA). It is filed as physicochemical. On the procedure: Differential scanning calorimetry (DSC) was performed using a TA Instruments Model Q-10 module with a Thermal Analyst controller. Data were collected and analyzed using TA Instruments Thermal Solutions software. A sample of about 1 mg was accurately weighed into an aluminum pan with lid. The sample was evaluated using a linear heating ramp of 5° C./min from ambient temperature to approximately 300° C. The DSC cell was purged with dry nitrogen during use.
Thermogravimetric analysis (TGA) was performed using a TA Instruments Model Q-50 module equipped with Hi-Resolution capability. Data were collected and analyzed using TA Instruments Thermal Solutions software. A sample weighing about 10 mg was placed onto a platinum pan and scanned with a high resolution-heating rate from ambient temperature to 300° C. The balance and furnace chambers were purged with nitrogen flows during use.

A short description of series [2]: Dynamic moisture sorption assessment (DMS). The format is physicochemical. Conditions: for deliquescence: exposed to atmosphere moisture. The method, then: Approximately 10 mg of sample was used in the microbalance and the sample was run as received. The humidity was set at ambient condition on the day the analysis began. A typical DMSG analysis consisted of three scans: ambient to 2% relative humidity (RH), 2% RH to 90% RH, 90% RH to 5% RH. The scan rate was 5% RH/step. The mass was measured every two minutes using an equilibrium window of 5 points within 0.01% of the initial sample weight. The RH was changed to the next value (+/−5% RH) when the mass of the sample was stable to within 0.01% for 5 consecutive points.

Series [3] relates to His-induced bronchoconstriction. Nature of the series: Bronchoprotection in guinea pig model of histamine-induced bronchoconstriction. It is filed as in vivo. The following applies: inhalation, 1.5 hours post-dose. The method, then:
(§1) Groups of 6 male guinea pigs (Duncan-Hartley (HsdPoc:DH) Harlan, Madison, Wis.) weighing between 250 and 350 g were individually identified by cage cards. Throughout the study, animals were allowed access to food and water ad libitum.
(§2) Forty-five minutes prior to the start of the pulmonary evaluation, each guinea pig was anesthetized with an intramuscular injection of ketamine (43.75 mg/kg), xylazine (3.50 mg/kg) and acepromazine (1.05 mg/kg). After the surgical site was shaved and cleaned with 70% alcohol, a 2-3 cm midline incision of the ventral aspect of the neck was made. […] The depth of anesthesia was monitored and adjusted if the animal responds to pinching of its paw or if the respiration rate was greater than 100 breaths/minute. […]
(§3) Once it was determined that baseline values were within the range of 0.3-0.9 mL/cm H2O for compliance and within the range of 0.1-0.199 cm H2O/mL per second for resistance, the pulmonary evaluation was initiated. […]
(§4) Starting this program initiated the experimental protocol and data collection. The changes in […] over time that occur within the plethysmograph with each breath were measured via a Buxco pressure transducer. By integrating this signal over time, a measurement of flow was calculated for each breath. […]

Series [4] relates to human β1, β2 or β3 adrenergic receptors. Put plainly: Whole-cell cAMP Flashplate assay in CHO cell lines heterologously expressing human β adrenergic receptors. The format is cell-based. The following applies: CHO-K1 cells; receptor subtype not named in the result sentence; read-out: EC50 values (β receptor agonist potency, cAMP). On the procedure:
Test compounds (10 mM in DMSO) were diluted into PBS containing 0.1% BSA in Beckman Biomek-2000 and tested at 11 different concentrations ranging from 100 μM to 1 pM.

The test system of series [5] is ACh-induced bronchoconstriction. Nature of the series: Bronchoprotection in guinea pig model of acetylcholine-induced bronchoconstriction. It is filed as in vivo. The following applies: inhalation, 1.5 hours post-dose. On the procedure: as §1, §2, §3, §4
[6] abbreviates: listed as crystalline naphthalene-1,5-disulfonic acid salt of the compound of formula I.
The mark [7] stands for this setting: listed as naphthalene-1,5-disulfonic acid salt of the present invention.

In the case of “Biphenyl-2-ylcarbamic Acid 1-{9-[(R)-2-Hydroxy-2-(8-Hydroxy-2-oxo-1,2-dihydroquinolin-5-yl)ethylamino]nonyl}piperidin-4-yl Ester Naphthalene-1,5-disulfonic Acid Salt [Example 3]”, in series [1] (from room temperature to 150° C.), the “weight loss (TGA)” value is given as “about 1.8%”. Also, the “temperature below which no thermal decomposition occurs (DSC)” value in series [1] (heating ramp of 5° C./min) is at least 200 °C. The moisture sorption/desorption profile result in series [2] is “reversible”. Further, the deliquescence entry is reported as “not to be deliquescent” in series [2] (setting [6]) and “not deliquescent” in series [2] (setting [7]). The values for the weight gain in series [2] (humidity range from 2% RH up to 90% RH) and in series [2] (humidity range of 40% RH to 75% RH) were 3.7% and “less than 1.5%”, respectively. Besides, the “hygroscopicity (weight gain when exposed to atmospheric moisture)” value in series [2] (setting [6]) is “less than 5%”; in series [2] (setting [7]), under 5%.
On to `O=C(Nc1ccccc1-c1ccccc1)OC1CCN(CCCCCCCCCNC[C@H](O)c2ccc(O)c3[nH]c(=O)ccc23)CC1` [compound of formula I, biphenyl-2-ylcarbamic acid 1-{9-[(R)-2-hydroxy-2-(8-hydroxy-2-oxo-1,2-dihydro-quinolin-5-yl)ethylamino]nonyl}piperidin-4-yl ester], for which, in series [3], the “ID50 for His-induced bronchoconstriction” value is on record as “less than 100 μg/mL”. Also, the EC50 in series [4] was under 10 nM. Also, in series [5], the “ID50 for ACh-induced bronchoconstriction” value is on record as “less than 100 μg/mL”.
